Holding throughout (assay): FP displacement (competition) of FITC-15 AA CRIPT by library peptide, IC50 and Ki
Assay [1] concerns the target PSG G322A (PSD-95). The note with it: for Ki: read-out: Ki (µM), PSG G322A; for IC50: read-out: IC50 (µM), PSG G322A.
In assay [2] the target is PDZ3 (PSD-95) (Homo sapiens, UniProt P78352).
Assay [3] addresses PSG G322A G335A (PSD-95). The note with it: for IC50: read-out: IC50 (µM), PSG G322A G335A; for Ki: read-out: Ki (µM), PSG G322A G335A.
Assay [4] deals with PSG G335A (PSD-95). The note with it: for IC50: read-out: IC50 (µM), PSG G335A; for Ki: read-out: Ki (µM), PSG G335A.
Assay [5] has as its target PSG (PSD-95). The note with it: for IC50: read-out: IC50 (µM), PSG.
The target in assay [6] is PSG F325A (PSD-95). The note with it: read-out: IC50 (µM), PSG F325A; FP displacement of FITC-15 AA CRIPT probe by acetylated PSD library peptide.
Where [7] appears, read: FP displacement of FITC-15 AA CRIPT probe by acetylated PSD library peptide.
The mark [8] stands for this setting: Ki (µM), PDZ3, FP displacement of FITC-15 AA CRIPT probe by acetylated PSD library peptide.
The mark [9] stands for this setting: Ki, FP displacement of 5 nM FITC-15 AA CRIPT by non-labeled acetylated peptide, room temperature, Ki from IC50, technical triplicates, PDZ3.
Setting [10] is: FP displacement of FITC-15 AA CRIPT probe by acetylated PSD library peptide (P-13 to P0 plus extra N-terminal Y).
The mark [11] stands for this setting: read-out: Ki (µM), PSG, FP displacement of FITC-15 AA CRIPT probe by acetylated PSD library peptide.
Setting [12] is: FP displacement of 5 nM FITC-15 AA CRIPT by non-labeled acetylated peptide, room temperature, Ki from IC50, technical triplicates, PSG.
The mark [13] stands for this setting: FP displacement of FITC-15 AA CRIPT probe by PSD library peptide, protein PSG G322A.
[14] abbreviates: Ki (µM), PDZ3, FP displacement of FITC-15 AA CRIPT probe by PSD library peptide, protein PDZ3.
Where [15] appears, read: FP displacement of FITC-15 AA CRIPT probe by PSD library peptide, protein PSG G322A G335A.
The mark [16] stands for this setting: FP displacement of FITC-15 AA CRIPT probe by PSD library peptide, protein PSG G335A.
Where [17] appears, read: FP displacement of FITC-15 AA CRIPT probe by PSD library peptide, protein PSG (wild type).
Setting [18] is: read-out: Ki (µM), PSG, FP displacement of FITC-15 AA CRIPT probe by PSD library peptide, protein PSG (wild type).

Structures are written as SMILES. Like-named read-outs stand apart in the source and are kept apart here. Bounds are passed on as bounds.

Chain of PDZ3 (PSD-95) (P78352 313-393 limits assumed): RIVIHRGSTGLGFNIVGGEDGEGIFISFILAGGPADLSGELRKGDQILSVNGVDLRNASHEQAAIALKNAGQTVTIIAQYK

`CC(=O)N[C@@H](Cc1ccc(O)cc1)C(=O)N[C@@H](CO)C(=O)N[C@@H](CC(C)C)C(=O)N[C@@H](CO)C(=O)N[C@@H](CCCCN)C(=O)N[C@@H](Cc1c[nH]cn1)C(=O)N[C@@H](CCC(=O)O)C(=O)N[C@@H](CO)C(=O)N[C@@H](CCC(=O)O)C(=O)N[C@@H](Cc1ccc(O)cc1)C(=O)N[C@@H](CC(N)=O)C(=O)N[C@H](C(=O)N[C@H](C(=O)N[C@@H](CCCNC(=N)N)C(=O)N[C@H](C(=O)O)C(C)C)[C@@H](C)O)[C@@H](C)O` [NETO1]: the Ki is 45 µM in assay [1] (setting [7]); 75 µM in assay [2] (setting [8]); under 75 µM in assay [2] (setting [9]); 22 µM in assay [3] (setting [7]); 27 µM in assay [4] (setting [7]); 101 µM in assay [5] (setting [11]). The IC50 in assay [2] is 182 µM; in assay [3] (setting [10]) it was 63 µM; in assay [4] (setting [7]), 77 µM; in assay [5] (setting [7]), 239 µM.

For the compound `CC[C@H](C)[C@H](NC(=O)[C@@H]1CCCN1C(=O)[C@H](Cc1ccc(O)cc1)NC(C)=O)C(=O)NCC(=O)NCC(=O)N[C@@H](CO)C(=O)N[C@@H](CC(C)C)C(=O)N[C@@H](CC(N)=O)C(=O)N[C@@H](CO)C(=O)N[C@H](C(=O)N[C@H](C(=O)N[C@@H](CC(=O)O)C(=O)N[C@@H](CO)C(=O)N[C@@H](C)C(=O)N[C@@H](CC(C)C)C(=O)O)[C@@H](C)O)[C@@H](C)O` [RGS14], the IC50 in assay [1] (setting [7]) stood at 133 µM; in assay [2], 67 µM; in assay [3] (setting [10]) it was 76 µM; in assay [4] (setting [7]), 233 µM; in assay [5] (setting [7]), 427 µM. In addition, the Ki in assay [1] (setting [7]) is 57 µM; in assay [2] (setting [8]) it was 27 µM; in assay [2] (setting [9]), under 75 µM; in assay [3] (setting [7]) it was 26 µM; in assay [4] (setting [7]), 83 µM; in assay [5] (setting [11]) it was 181 µM.

For the compound `CC[C@H](C)[C@H](NC(=O)[C@H](CO)NC(=O)[C@H](CCC(N)=O)NC(=O)[C@H](CCCNC(=N)N)NC(=O)[C@H](CCCCN)NC(=O)[C@H](CO)NC(=O)[C@H](CC(=O)O)NC(=O)[C@@H]1CCCN1C(=O)[C@H](Cc1ccc(O)cc1)NC(C)=O)C(=O)N[C@@H](CC(C)C)C(=O)N[C@@H](Cc1ccccc1)C(=O)N[C@@H](CO)C(=O)N[C@H](C(=O)N[C@@H](CCC(=O)O)C(=O)N[C@H](C(=O)O)C(C)C)[C@@H](C)O` [BCR], the IC50 in assay [1] (setting [7]) was determined as 27 µM; in assay [3] (setting [10]), 21 µM; in assay [4] (setting [7]), 33 µM; in assay [5] (setting [7]), 110 µM. For the same compound, the Ki was 12 µM in assay [1] (setting [7]); 42 µM in assay [2] (setting [8]); under 75 µM in assay [2] (setting [9]); 7 µM in assay [3] (setting [7]); 12 µM in assay [4] (setting [7]); under 75 µM in assay [5] (setting [12]). In assay [5] (setting [11]), the Ki worked out at 46 µM.

Consider `CC(=O)N[C@@H](Cc1ccc(O)cc1)C(=O)N[C@@H](CC(N)=O)C(=O)N[C@@H](CO)C(=O)N[C@H](C(=O)N[C@@H](CC(N)=O)C(=O)N[C@@H](CC(C)C)C(=O)N1CCC[C@H]1C(=O)N[C@@H](Cc1c[nH]cn1)C(=O)NCC(=O)N[C@@H](Cc1c[nH]cn1)C(=O)N[C@@H](CO)C(=O)N[C@H](C(=O)N[C@H](C(=O)N[C@@H](CCCNC(=N)N)C(=O)N[C@H](C(=O)O)C(C)C)[C@@H](C)O)[C@@H](C)O)[C@@H](C)O` [NLGNX], for which the IC50 in assay [1] (setting [7]) is 72 µM; in assay [2], 62 µM; in assay [3] (setting [10]), 43 µM; in assay [4] (setting [7]) it was 39 µM; in assay [5] (setting [7]), 184 µM. Besides, the Ki in assay [1] (setting [7]) was 31 µM; in assay [2] (setting [8]) it was 40 µM; in assay [2] (setting [9]), under 75 µM; in assay [3] (setting [7]), 15 µM; in assay [4] (setting [7]) it was 14 µM; in assay [5] (setting [11]), 78 µM.

In the case of `CC(=O)N[C@@H](Cc1ccc(O)cc1)C(=O)N[C@@H](CCC(N)=O)C(=O)N[C@@H](CCCNC(=N)N)C(=O)NCC(=O)N[C@@H](CO)C(=O)N[C@@H](Cc1ccccc1)C(=O)N1CCC[C@H]1C(=O)N1CCC[C@H]1C(=O)N[C@@H](Cc1c[nH]c2ccccc12)C(=O)N[C@H](C(=O)N[C@@H](CCC(N)=O)C(=O)N[C@@H](CCC(N)=O)C(=O)N[C@H](C(=O)N[C@@H](CCCNC(=N)N)C(=O)N[C@H](C(=O)O)C(C)C)[C@@H](C)O)C(C)C` [SYNGAP⍺1], the half-inhibitory concentration (IC50) came out at 1.31 µM in assay [1] (setting [7]); 8 µM in assay [6]; 0.922 µM in assay [3] (setting [10]); 1.12 µM in assay [4] (setting [7]); 4.24 µM in assay [5] (setting [7]). For the same compound, the Ki in assay [1] (setting [7]) is 0.4 µM; in assay [3] (setting [7]), 0.243 µM; in assay [4] (setting [7]), 0.24 µM; in assay [5] (setting [12]), under 75 µM; in assay [5] (setting [11]) it was 0.913 µM.

As to `CC[C@H](C)[C@H](NC(=O)[C@H](CO)NC(=O)[C@@H]1CCCN1C(=O)[C@H](CCSC)NC(=O)[C@H](CCCCN)NC(=O)[C@H](CCCCN)NC(=O)[C@H](Cc1ccc(O)cc1)NC(=O)[C@@H](NC(=O)[C@H](CCCNC(=N)N)NC(=O)[C@H](CCCNC(=N)N)NC(=O)[C@H](Cc1ccc(O)cc1)NC(C)=O)C(C)C)C(=O)N[C@@H](CCC(=O)O)C(=O)N[C@@H](CO)C(=O)N[C@@H](CC(=O)O)C(=O)N[C@H](C(=O)O)C(C)C` [NMDE1], the IC50 in assay [1] (setting [13]) was found to be 153 µM; in assay [3] (setting [15]) it was 156 µM; in assay [4] (setting [16]), 267 µM; in assay [5] (setting [17]), 463 µM. The Ki in assay [1] (setting [13]) is 66 µM; in assay [2] (setting [14]), 172 µM; in assay [3] (setting [15]), 54 µM; in assay [4] (setting [16]), 95 µM; in assay [5] (setting [18]), 243 µM.

In the case of `CC(=O)N[C@@H](Cc1ccc(O)cc1)C(=O)N[C@@H](Cc1c[nH]cn1)C(=O)N1CCC[C@H]1C(=O)N[C@@H](Cc1c[nH]cn1)C(=O)N1CCC[C@H]1C(=O)N[C@@H](Cc1c[nH]cn1)C(=O)N1CCC[C@H]1C(=O)N[C@@H](Cc1c[nH]cn1)C(=O)N[C@@H](CO)C(=O)N[C@@H](Cc1c[nH]cn1)C(=O)N[C@@H](CO)C(=O)N[C@H](C(=O)N[C@H](C(=O)N[C@@H](CCCNC(=N)N)C(=O)N[C@H](C(=O)O)C(C)C)[C@@H](C)O)[C@@H](C)O` [NLGN1], the 50% inhibitory concentration (IC50) in assay [1] (setting [13]) was found to be 56 µM; in assay [3] (setting [15]), 22 µM; in assay [5] (setting [17]), 118 µM. Also, the Ki in assay [1] (setting [13]) is 24 µM; in assay [2] (setting [14]), 72 µM; in assay [2] (setting [9]) it was under 75 µM; in assay [3] (setting [15]), 7.42 µM; in assay [4] (setting [16]) it was 9 µM; in assay [5] (setting [12]), under 75 µM. In assay [5] (setting [18]), the Ki stood at 61 µM.

For the compound `CC[C@H](C)[C@H](NC(=O)[C@H](Cc1ccccc1)NC(=O)[C@H](CO)NC(=O)[C@H](CCCNC(=N)N)NC(=O)[C@H](CCCCN)NC(=O)[C@@H]1CCCN1C(=O)[C@H](CCCCN)NC(=O)[C@H](C)NC(=O)[C@H](C)NC(=O)[C@@H](NC(=O)[C@H](Cc1ccc(O)cc1)NC(C)=O)[C@@H](C)O)C(=O)N[C@@H](CCC(=O)O)C(=O)N[C@@H](CO)C(=O)N[C@@H](CC(N)=O)C(=O)N[C@H](C(=O)O)C(C)C` [TANC1], the IC50 in assay [1] (setting [7]) was 21 µM; in assay [2] it was 58 µM; in assay [3] (setting [10]) it was 12 µM; in assay [4] (setting [7]), 24 µM; in assay [5] (setting [7]), 67 µM. Further, the Ki in assay [1] (setting [7]) is 9 µM; in assay [2] (setting [8]) it was 23 µM; in assay [2] (setting [9]), under 75 µM; in assay [3] (setting [7]), 4 µM; in assay [4] (setting [7]), 8.45 µM; in assay [5] (setting [12]) it was under 75 µM. Besides, the Ki in assay [5] (setting [11]) came to 28 µM.
